Reference: publication PMC3683333, “^11C-LY2428703, a positron emission tomographic radioligand for the metabotropic glutamate receptor 1, is unsuitable for imaging in monkey and human brains” (EJNMMI Research, 2013)

Assays:
mGluR1 [1] = biological target: T1, mGluR1 (Macaca mulatta, UniProt I2CU04); experiment: Saturation binding assay with [^3H]LY456066, monkey cerebellar membranes; design: species or system rhesus monkeys; details: monkeys
T1 construct: P2 membrane fractions were prepared from the cerebella of; from tissue; host or cells: rhesus monkey cerebellum, P2 membrane fraction
T1 sequence (I2CU04 19-1195): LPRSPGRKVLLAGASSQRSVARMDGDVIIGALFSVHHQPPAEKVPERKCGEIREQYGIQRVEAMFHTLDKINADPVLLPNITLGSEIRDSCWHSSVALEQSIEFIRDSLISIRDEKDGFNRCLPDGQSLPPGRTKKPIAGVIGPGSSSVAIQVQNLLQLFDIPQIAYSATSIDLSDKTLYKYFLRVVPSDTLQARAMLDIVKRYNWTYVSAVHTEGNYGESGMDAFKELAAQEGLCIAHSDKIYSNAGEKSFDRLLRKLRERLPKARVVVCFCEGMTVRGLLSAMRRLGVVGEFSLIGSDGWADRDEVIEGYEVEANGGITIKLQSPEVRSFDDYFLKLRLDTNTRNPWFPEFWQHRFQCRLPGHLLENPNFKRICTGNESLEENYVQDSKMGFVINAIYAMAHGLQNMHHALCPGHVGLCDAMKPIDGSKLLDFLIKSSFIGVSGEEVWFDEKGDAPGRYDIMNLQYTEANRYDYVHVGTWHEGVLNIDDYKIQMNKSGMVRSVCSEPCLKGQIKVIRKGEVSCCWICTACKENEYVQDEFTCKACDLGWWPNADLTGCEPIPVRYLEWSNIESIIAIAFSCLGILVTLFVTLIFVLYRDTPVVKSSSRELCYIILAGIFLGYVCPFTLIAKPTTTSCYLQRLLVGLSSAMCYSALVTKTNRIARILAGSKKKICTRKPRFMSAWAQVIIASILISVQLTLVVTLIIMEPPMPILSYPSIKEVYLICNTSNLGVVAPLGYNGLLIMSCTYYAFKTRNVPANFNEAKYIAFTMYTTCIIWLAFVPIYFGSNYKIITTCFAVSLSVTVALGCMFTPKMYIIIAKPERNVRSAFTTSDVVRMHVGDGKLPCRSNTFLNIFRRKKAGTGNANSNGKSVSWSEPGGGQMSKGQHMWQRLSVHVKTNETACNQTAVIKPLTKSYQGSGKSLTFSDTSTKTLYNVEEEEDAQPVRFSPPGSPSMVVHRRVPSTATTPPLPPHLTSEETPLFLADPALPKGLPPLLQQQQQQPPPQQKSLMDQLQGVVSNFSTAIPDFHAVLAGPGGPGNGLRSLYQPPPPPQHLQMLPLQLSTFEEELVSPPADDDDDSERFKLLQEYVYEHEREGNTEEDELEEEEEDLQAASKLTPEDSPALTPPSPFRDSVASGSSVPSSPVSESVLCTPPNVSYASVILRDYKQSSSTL
Protocol: P2 membrane fractions were prepared from the cerebella of male Sprague–Dawley rats (n = 3), male rhesus monkeys (n = 3), and female humans (n = 4). […] Nonspecific binding was defined by heterologous displacement of 1 μM LY480084 (mGlu1 antagonist) in select wells. Plates were incubated on ice for 75 min and membranes harvested on 0.3% polyethylenimine pretreated Wallac filter mats using a Tomtec Harvester MachII (Tomtec, Hamden, CT, USA). Dissociation constant (KD) and receptor density (Bmax) values were obtained in GraphPad Prism using standard nonlinear one-site binding equations. Data are presented as mean ± SEM (n = 3 to 4); one-way analysis of variance followed by Tukey's post hoc test.

[2] = In vitro stability in human blood and plasma; assay type: in vitro ADME; details: room temperature, 30 min
Protocol: Nonradioactive anticoagulated blood was obtained on the day of study from either human or nonhuman primates. Aliquots of ^11C-LY2428703 (about 150 kBq) were added to 0.5 mL of whole blood or 0.5 mL of plasma. Samples were incubated at room temperature for 30 min, after which either 450 μL of the radioactive plasma was added to 720 μL of acetonitrile or 200 μL of the radioactive whole blood was added to 300 μL of water. The tube containing the blood suspension was shaken well to mix and lyse the blood cells. Seven hundred and twenty microliters of acetonitrile was subsequently added and mixed well to precipitate the proteins, followed by 100 μL of water, which was again re-mixed. Radioactivity in the tubes was measured in a gamma counter and then centrifuged at 10,000×g for 1 min. The clear supernatant liquid was injected into the high-performance liquid chromatography (HPLC) column and the precipitate counted to calculate the recovery of radioactivity into the acetonitrile.
The stability of the radioligand in whole blood or plasma was calculated as the ratio of the HPLC % composition of samples divided by the radiochemical purity of the radioligand.

[3] = Arterial plasma analysis after injection, monkey; assay type: in vivo, rhesus monkeys; details: after intravenous injection
Protocol: Plasma analyses were performed on a reverse-phase chromatography C18 column (Novapak, 4 μm, 100 × 8 mm, Waters Corp. Milford, MA, USA) using Radial-Pak® compression module RCM-100 with a sentry pre-column. Human plasma analyses were performed with a mobile phase of […], at a flow rate of 2.5 mL/min; nonhuman primate plasma samples were analyzed with a mobile phase of MeOH/H2O/Et3N, 72.5:27.5:0.1 by volume, at a flow rate of 1.5 mL/min. To compare the outcome from both systems, elution volume is reported rather than retention time.
Arterial plasma was analyzed as previously described. Briefly, after ^11C-LY2428703 injection into either human or nonhuman primate, the input function was determined by periodically drawing anticoagulated blood samples. […] The samples were counted in the γ-counter and centrifuged at 10,000×g for 1 min. […] The precipitates were then counted for radioactivity to allow the calculation of the efficiency of recovery of radioactivity in the acetonitrile. […]
PET images were acquired using either the high-resolution research tomograph (HRRT) or the FOCUS 220 scanner (Siemens/CPS, Knoxville, TN, USA) for 120 min in 33 frames, with frame durations ranging from 30 s to 5 min, and correcting for attenuation and scatter. […] Electrocardiograph, body temperature, heart rate, and respiration rate were measured throughout the experiment. […]

mGluR1 [4] = experiment: Brain PET at baseline and after mGluR1 blockade, monkey; assay type: in vivo, rhesus monkeys (Macaca mulatta)
Protocol: (§1) Four male rhesus monkeys (Macaca mulatta, 11.7 ± 2.9 kg) were imaged in 13 PET scans. Seven scans were performed at baseline, three scans were performed after receptor blocking to calculate nondisplaceable uptake (VND), and three scans were performed after blockade of the efflux transporters at the blood–brain barrier. Receptors were blocked by mixing ^11C-LY2428703 with an mGluR1 antagonist - either nonradioactive LY2428703 (2.0 mg/kg) or LY2332084 (0.5 mg/kg) - in the same syringe. Efflux transporters were blocked in two scans by injecting DCPQ, which selectively blocks the efflux transporter ABCB1 (P-gp), and in one scan by injecting elacridar, which blocks both ABCB1 (P-gp) and ABCG2 (BCRP).
(§2) PET images were acquired using either the high-resolution research tomograph (HRRT) or the FOCUS 220 scanner (Siemens/CPS, Knoxville, TN, USA) for 120 min in 33 frames, with frame durations ranging from 30 s to 5 min, and correcting for attenuation and scatter. About 2 h before the PET scan, anesthesia was initiated with ketamine (10 mg/kg IM) and then maintained with 1% to 3% isoflurane. Electrocardiograph, body temperature, heart rate, and respiration rate were measured throughout the experiment. At baseline, the injected activity was 210 ± 51 MBq (specific activity at time of injection 43.2 ± 25.6 GBq/μmol, mass dose 6.9 ± 4.7 nmol or 0.62 ± 0.35 nmol/kg). Tissue time-activity curves were obtained from semi-automatic regions of interest encompassing the whole cerebellum and the rest of the brain. Brain uptake was expressed as standardized uptake value (SUV). Arterial input function was obtained for eight scans: four at baseline, two after blocking with nonradioactive LY2428703, one after blocking with DCPQ, and one after blocking with elacridar. Blood samples (0.5 mL each) were drawn through a port connected to the femoral artery at 15-s intervals until 2 min, followed by 1-mL samples at 3, 5, 10, 30, 60, 90, and 120 min. The plasma time-activity curve was corrected for the fraction of unchanged radioligand following the procedure detailed above.
(§3) Volumes of distribution (VT) were obtained by nonlinear compartmental analysis. Goodness-of-fit by nonlinear least squares analysis was evaluated using the Akaike Information Criterion (AIC) and Model Selection Criterion (MSC). The most appropriate model is that with the smallest AIC and the largest MSC score. Goodness-of-fit by the compartment models was compared with F statistics. A value of P < 0.05 was considered significant for F statistics. The identifiability of kinetic variables was calculated as standard error obtained from the diagonal of the covariance matrix and expressed as a percentage of the rate constant.

[5] = tested on: ABCB1 (P-gp) and ABCG2 (BCRP); experiment: Brain PET after blockade of efflux transporters, monkey; assay type: in vivo, rhesus monkeys (Macaca mulatta)
Protocol: as §1, §2, §3

[6] = Pharmacological effects of injection, monkey; assay type: in vivo, rhesus monkeys; details: after injection
Protocol: as §2

fp × Bmax/KD (=VS), effective BP (mGluR1 [1]): 0.161
tracer stability ([2]; human plasma): 99.4 ± 1.4%
tracer stability ([2]; human whole blood): 99.5 ± 1.1%
time of peak plasma concentration [3]: 1 to 1.5 min
peak uptake in cerebellum (mGluR1 [4]; after mGluR1 blockade): 4.9 ± 0.8 SUV
peak uptake in forebrain (mGluR1 [4]; after mGluR1 blockade): 3.6 ± 1.9 SUV
peak uptake in cerebellum (mGluR1 [4]; baseline): 3.1 ± 1.4 SUV
peak uptake in cerebellum higher than in forebrain (mGluR1 [4]; baseline): about 50%
peak uptake in forebrain (mGluR1 [4]; baseline): 2.2 ± 0.8 SUV
time at which cerebellar uptake decreased to 50% of peak (mGluR1 [4]; baseline): about 20 min
time of peak uptake in cerebellum (mGluR1 [4]; baseline): approximately 2 min
time of peak uptake in forebrain (mGluR1 [4]; baseline): approximately 2 min
mean VT (mGluR1 [4]; baseline scans, two-tissue compartment model): 3.5 ± 1.0 mL/cm^3
VND (mGluR1 [4]; calculated from mGluR1 blocking studies): 4.4 ± 2.9 mL/cm^3
VT in cerebellum ([5]; DCPQ experiment: baseline): 4.4 mL/cm^3
VT in cerebellum ([5]; after DCPQ blockade (P-gp)): 4.2 mL/cm^3
VT in cerebellum ([5]; after elacridar blockade (P-gp and BCRP)): 0.8 mL/cm^3
substrate for P-gp or BCRP ([5]; based on pharmacological blockade): not a substrate
VT in cerebellum ([5]; elacridar experiment: baseline): 2.0 mL/cm^3
SMILES: Cc1c(-c2ccc(O[11CH3])cc2)nsc1NC(=O)[C@@H]1C[C@H]1C [^11C-LY2428703]
changes in pulse/heart rate, respiratory rate, electrocardiogram [6]: no significant changes
